Measured values: patent US20240287138A1, “CYCLIC PEPTIDES FOR INHIBITING TNF RECEPTOR 1 ACTIVITY” (Merck Sharp & Dohme LLC, priority 2023, published 2024)
Numbered stars: 1 amine (or outer) side, 2 acyl side, 3 side chain; on linkers, the order of the positions; unused ones are H or OH. Bridge positions count the residues as written; N and C are the ends. Square brackets hold non-standard residues; d marks the D form. Peptide text beside a SMILES is read from it. Phe(4-(4-Ac-piperazinyl)) = CC(=O)N1CCN(c2ccc(C[C@H](N)C(=O)O)cc2)CC1; Trp(7-aza,1-CH2COOH) = N[C@@H](Cc1cn(CC(=O)O)c2ncccc12)C(=O)O; Trp(βS-Me,7-OMe) = COc1cccc2c([C@H](C)[C@H](N)C(=O)O)c[nH]c12; Trp(1-CH2COOH) = N[C@@H](Cc1cn(CC(=O)O)c2ccccc12)C(=O)O; Trp(βS-Me) = C[C@@H](c1c[nH]c2ccccc12)[C@H](N)C(=O)O; dPro(trans-4-NMe2) = CN(C)[C@@H]1CN[C@@H](C(=O)O)C1; Trp(7-CN) = N#Cc1cccc2c(C[C@H](N)C(=O)O)c[nH]c12; Trp(7-Cl) = N[C@@H](Cc1c[nH]c2c(Cl)cccc12)C(=O)O; Phe(4-CONH2) = NC(=O)c1ccc(C[C@H](N)C(=O)O)cc1; Phe(4-COOH) = N[C@@H](Cc1ccc(C(=O)O)cc1)C(=O)O; 4Pal(3S-Me) = C[C@@H](c1ccncc1)[C@H](N)C(=O)O; X66 = O=C([C@@H](N[*:1])c1cccc(O)c1)[*:2]; Lys(Me3) = C[N+](C)(C)CCCC[C@H](N)C(=O)O; Pip(5R-OH) = O=C(O)[C@@H]1CC[C@@H](O)CN1; X1 = O=C([C@@H]1CC[C@H](N[*:1])C1)[*:2]; Pip(4-aza) = O=C(O)[C@@H]1CNCCN1; 4Pal = N[C@@H](Cc1ccncc1)C(=O)O; NMeE = CN[C@@H](CCC(=O)O)C(=O)O; dHyp = O=C(O)[C@H]1C[C@H](O)CN1; Ahp(2) = CCCCC[C@H](N)C(=O)O; Pip = O=C(O)[C@@H]1CCCCN1; αMeS = C[C@](N)(CO)C(=O)O; NMeA = CN[C@@H](C)C(=O)O; Nle = CCCC[C@H](N)C(=O)O; Sar = CNCC(=O)O

biological target: T1, TNFα-induced NF-κB signal transduction pathway (TNFR1 signaling) in THP-1 cells (Homo sapiens, UniProt P19438); assay: THP-1 Lucia NF-κB reporter cell assay, inhibition of TNFα-induced NF-κB signaling; assay type: cell-based; conditions: THP-1 NF-κB Lucia reporter cells, 10 ng/mL TNFα, 16-18 h, secreted luciferase; read-out: THP-1 IC50
T1 sequence (P19438 30-455): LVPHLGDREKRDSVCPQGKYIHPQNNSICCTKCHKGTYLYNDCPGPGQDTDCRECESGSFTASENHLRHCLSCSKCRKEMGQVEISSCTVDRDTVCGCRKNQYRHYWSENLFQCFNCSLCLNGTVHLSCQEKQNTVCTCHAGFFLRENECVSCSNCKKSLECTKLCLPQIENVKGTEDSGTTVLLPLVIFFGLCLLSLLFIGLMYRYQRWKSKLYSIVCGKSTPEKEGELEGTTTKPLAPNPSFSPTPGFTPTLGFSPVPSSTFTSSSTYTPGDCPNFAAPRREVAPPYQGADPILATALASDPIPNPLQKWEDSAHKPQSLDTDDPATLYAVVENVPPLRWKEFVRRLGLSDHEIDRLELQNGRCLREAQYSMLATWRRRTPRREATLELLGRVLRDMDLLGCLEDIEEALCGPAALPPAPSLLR
Experimental: C. Procedure for THP-1 Lucia NF-κB cells
The inhibition of TNFα-induced NF-κB signal transduction pathways was evaluated in THP-1 cells. THP-1 cells harboring NF-κB-inducible Lucia™ reporter gene (InvivoGen, cat. #thp1-nfkb) designed for monitoring NF-κB signal transduction pathway was employed to assess the inhibitory effect macrocyclic peptides on TNFR1 signaling. The cells were cultured in media containing RPMI 1640, 2 mM L-glutamine, 25 mM HEPES, 10% heat-inactivated fetal bovine serum with appropriate selection antibiotics. Assays were performed in media that was devoid of selection antibiotics. For profiling, 125 nL of peptides in DMSO (10 mM) were dispensed into Falcon® 384-well Optilux white/clear flat bottom TC-treated microtest microplate (Corning, cat. #353963) using Echo® 555. […] A suspension of 1 million cells/mL was dispensed at 20 μL/well in a 384-well plate to a density of 20,000 cells/well and pre-incubated with peptides at 37° C. for 1 h. Subsequently, 5 μL of TNF containing media (recombinant human TNFα; R&D Systems USA, cat. #210-TA-005/CF) or TNF-free media (for controls) was added to the wells. The final concentration of TNFα in the assay in 10 ng/mL. After o.n. incubation at 37° C. (16-18 h), 5 μL of supernatant was aspirated and transferred to a 384-well microplate (PerkinElmer, cat. #6007680) for measurement of secreted luciferase activity with 25 μL of QUANTI-Luc™ luminescence assay reagent (InvivoGen, cat. #rep-qlc1) in each well. The luminescence was measured in EnVision® Multimode Plate Reader (PerkinElmer). Dose response curves were analyzed using a 4-parameter logistic model to calculate IC50 values, reported in Table 2, using TIBCO® Spotfire® software employing appropriate Minimum and Maximum controls.

Point of comparison: `C[C@@H](c1c[nH]c2ccccc12)[C@@H]1NC(=O)[C@H](CO)NC(=O)[C@H](Cc2ccc(O)cc2)NC(=O)[C@H](CCCCN)NC(=O)CSC[C@@H](C(N)=O)NC(=O)[C@H](Cc2c[nH]c3ccccc23)NC(=O)CN(C)C(=O)[C@H](Cc2ccc(O)cc2)NC(=O)[C@H](Cc2ccc(C(=O)O)cc2)NC(=O)[C@](C)(CO)NC(=O)[C@H](Cc2c[nH]c3ccccc23)NC(=O)[C@H](Cc2ccncc2)NC(=O)[C@H](CC(N)=O)NC(=O)[C@H](C)N(C)C1=O` [SEQ ID NO. 36] ({CH2CO}-KYS[Trp(βS-Me)][NMeA]N[4Pal]W[αMeS][Phe(4-COOH)]Y[Sar]WC-NH2; thioether N-14), IC50 2.2 nM. Against it:
- CCCC[C@@H]1NC(=O)[C@@H]2CC[C@@H](C2)NC(=O)[C@H]([C@@H](C)c2c[nH]c3c(OC)cccc23)NC(=O)CN(C)C(=O)[C@H](Cc2ccc(C(N)=O)cc2)NC(=O)[C@H](Cc2ccc(C(N)=O)cc2)NC(=O)[C@](C)(CO)NC(=O)[C@H](Cc2c[nH]c3c(C#N)cccc23)NC(=O)[C@H](Cc2ccc(C(=O)O)cc2)NC(=O)[C@H](CC(N)=O)NC(=O)[C@H]2C[C@H](N(C)C)CN2C(=O)[C@H](Cc2cn(CC(=O)O)c3ncccc23)NC(=O)[C@@H]2CC[C@@H](O)CN2C(=O)[C@H](Cc2ccncc2)NC1=O [SEQ ID NO. 32] (cyclo([4Pal][Pip(5R-OH)][Trp(7-aza,1-CH2COOH)][dPro(trans-4-NMe2)]N[Phe(4-COOH)][Trp(7-CN)][αMeS][Phe(4-CONH2)][Phe(4-CONH2)][Sar][Trp(βS-Me,7-OMe)][X1][Nle])) — 3.7-fold lower, 0.6 nM
- COc1cccc2c([C@H](C)[C@@H]3NC(=O)CN(C)C(=O)[C@H](Cc4ccc(O)cc4)NC(=O)[C@H](Cc4ccc(C(=O)O)cc4)NC(=O)[C@](C)(CO)NC(=O)[C@H](Cc4c[nH]c5c(Cl)cccc45)NC(=O)[C@H](Cc4ccncc4)NC(=O)[C@H](CC(N)=O)NC(=O)[C@H](CCC(=O)O)N(C)C(=O)[C@H](Cc4c[nH]c5ccccc45)NC(=O)[C@@H]4CCCCN4C(=O)[C@H](Cc4ccncc4)NC(=O)[C@H](CCCC[N+](C)(C)C)NC(=O)[C@@H]4CC[C@@H](C4)NC3=O)c[nH]c12 [SEQ ID NO. 47] (cyclo([4Pal][Pip]W[NMeE]N[4Pal][Trp(7-Cl)][αMeS][Phe(4-COOH)]Y[Sar][Trp(βS-Me,7-OMe)][X1][Lys(Me3)])) — within 1.5-fold, 1.9 nM
- CCCC[C@@H]1NC(=O)CSC[C@@H](C(N)=O)NC(=O)[C@H]([C@@H](C)c2c[nH]c3c(OC)cccc23)NC(=O)CN(C)C(=O)[C@H](c2cccc(O)c2)NC(=O)[C@H](Cc2ccc(C(N)=O)cc2)NC(=O)[C@](C)(CO)NC(=O)[C@H](Cc2c[nH]c3c(Cl)cccc23)NC(=O)[C@H](Cc2ccc(C(=O)O)cc2)NC(=O)[C@H](CC(N)=O)NC(=O)[C@H](CCC(=O)O)N(C)C(=O)[C@H](Cc2cn(CC(=O)O)c3ccccc23)NC(=O)[C@@H]2CNCCN2C(=O)[C@H](Cc2ccncc2)NC1=O [SEQ ID NO. 52] ({CH2CO}-[Nle][4Pal][Pip(4-aza)][Trp(1-CH2COOH)][NMeE]N[Phe(4-COOH)][Trp(7-Cl)][αMeS][Phe(4-CONH2)][X66][Sar][Trp(βS-Me,7-OMe)]C-NH2; thioether N-14) — 1.8-fold higher, 3.9 nM
- CCCCC[C@@H]1NC(=O)[C@@H]2CC[C@@H](C2)NC(=O)[C@H]([C@@H](C)c2c[nH]c3c(OC)cccc23)NC(=O)CN(C)C(=O)[C@H](Cc2ccc(C(N)=O)cc2)NC(=O)[C@H](Cc2ccc(C(N)=O)cc2)NC(=O)[C@](C)(CO)NC(=O)[C@H](Cc2c[nH]c3c(C#N)cccc23)NC(=O)[C@H](Cc2ccc(C(=O)O)cc2)NC(=O)[C@H](CC(N)=O)NC(=O)[C@H]2C[C@H](O)CN2C(=O)[C@H](Cc2c[nH]c3ccccc23)NC(=O)[C@H](CC(=O)O)NC(=O)[C@H]([C@@H](C)c2ccncc2)NC1=O [SEQ ID NO. 55] (cyclo([Ahp(2)][4Pal(3S-Me)]DW[dHyp]N[Phe(4-COOH)][Trp(7-CN)][αMeS][Phe(4-CONH2)][Phe(4-CONH2)][Sar][Trp(βS-Me,7-OMe)][X1])) — 1.7-fold lower, 1.3 nM
- CCCC[C@@H]1NC(=O)[C@@H]2CC[C@@H](C2)NC(=O)[C@H]([C@@H](C)c2c[nH]c3c(OC)cccc23)NC(=O)CN(C)C(=O)[C@H](Cc2ccc(N3CCN(C(C)=O)CC3)cc2)NC(=O)[C@H](Cc2ccc(C(=O)O)cc2)NC(=O)[C@](C)(CO)NC(=O)[C@H](Cc2c[nH]c3c(Cl)cccc23)NC(=O)[C@H](Cc2ccncc2)NC(=O)[C@H](CC(N)=O)NC(=O)[C@H](CCC(=O)O)N(C)C(=O)[C@H](Cc2c[nH]c3ccccc23)NC(=O)[C@@H]2CNCCN2C(=O)[C@H](Cc2ccncc2)NC1=O [SEQ ID NO. 63] (cyclo([4Pal][Trp(7-Cl)][αMeS][Phe(4-COOH)][Phe(4-(4-Ac-piperazinyl))][Sar][Trp(βS-Me,7-OMe)][X1][Nle][4Pal][Pip(4-aza)]W[NMeE]N)) — 1.8-fold lower, 1.2 nM
